Laboratory results reported in patent US20230413887A1, “2'-FUCOSYLLACTOSE FOR USE IN STIMULATING F. PRAUSNITZII ABUNDANCE” (FrieslandCampina Nederland B.V., priority 2020, published 2023).
Entries after “also recorded” stand apart in the source; their conditions may differ.

Legend:
[1] = tested on: Faecalibacterium prausnitzii; assay: in vitro incubation of 2′-FL with fecal inoculum of adult and elderly subjects, 16S rRNA microbiota composition; type: cell-based, human; settings: 2′-FL 10 mg/ml, 10% (v/v) fecal inoculum, samples 0-24 h, adults 25-50 yrs and 70-79 yrs
Protocol: A group of twelve randomly contacted adults—three men and three women aged 25-50 yrs and three men and three women aged 70-79 yrs—donated their fecal material for an in vitro study. Anoxically cryo-conserved fecal inoculum was defrosted and transferred to a 96% N2 and 4% H2 filled anaerobic chamber. Incubation of 2′-FL (10 mg/ml) was done with 10% (v/v) fecal inoculum in duplicate, while incubations without fecal inoculum and without carbohydrates served as controls using the standard ileal efflux medium. Samples were collected 0 h, 4 h, 10 h and 24 h after inoculation.
Three aliquots of 1 ml from each culture bottle were then distributed into 1.5 ml Eppendorf tubes. One of these aliquots was heated at 100° C. for 5 min to determine carbohydrates in the supernatant. Afterwards, all samples were centrifuged at 4° C. at 18600 relative centrifugal force (rcf) for 10 min. The supernatants from the other two tubes were pooled and stored at −20° C. for metabolite measurement, while the remaining pellets were stored at −80 C for microbiota composition analysis.
The microbiota composition was determined by sequencing of barcoded 16S ribosomal RNA (rRNA) gene amplicons using Illumina Hiseq2500 (2×150 bp). […]

F. prausnitzii [2] = settings: cited from earlier work
F. prausnitzii [3] = settings: co-culture with Bifidobacterium longum subsp. infantis; cited from earlier work
F. prausnitzii [4] = settings: rats; cited from earlier work

## 2′-fucosyllactose [2′-FL]
[1]
  abundance of F. prausnitzii as compared to control medium without 2′-FL: increase the abundance; also recorded: higher abundance
F. prausnitzii [2]
  effect on F. prausnitzii abundance in monocultures: does not affect
F. prausnitzii [3]
  effect on F. prausnitzii abundance in co-culture: not able to increase
F. prausnitzii [4]
  F. prausnitzii abundance as a result of 2′-FL administration: decrease
